Molecules are shown by their SMILES.

These results are taken from patent US4649145A, “Thiazole derivatives” (Hoechst UK Limited, priority 1982, dated 1987).

The subject of the first assay is gastric acid secretion in the perfused rat stomach. The assay is described as follows: antisecretory activity in the perfused rat stomach (inhibition of histamine- or pentagastrin-stimulated gastric acid secretion). The assay is classed as in vivo. As to conditions: Rattus norvegicus, iv, read-out: ID50 (amount of compound required to inhibit the stimulated secretion by 50%). On the procedure:
Compounds of this invention were tested for antisecretory activity in the perfused rat stomach. The method of Ghosh and Schild, Brit. […] J. […] After the secretion plateau was reached, the test compound was administered i.v. and the amount of compound required to inhibit the stimulated secretion by 50% was determined.
`CN/C(=N/CCSCc1nc[nH]c1C)NC#N` [Cimetidine, N--cyanoN'--methylN"--{2[(4methyl-5-imidazolyl)methyl-thio]ethyl}guanidin, reference compound]: the ED50 is 2.5 mg/kg.

Still in this assay, the particulars now being: iv; perfused rat stomach; i.v.; acid secretion stimulated by infusing either histamine or pentagastrin at a constant rate; read-out: ID50 (amount of compound required to inhibit the stimulated secretion by 50%).
For `COc1ccc(C=C2NC(NCCSCc3csc(N=C(N)N)n3)=NC2=O)cc1` [Compound 81], the ED50 stood at 1.2 mg/kg.

Consider `CC(C)C=C1NC(NCCSCc2csc(N=C(N)N)n2)=NC1=O` [Compound 92], for which the ED50 amounted to 0.07 mg/kg.

For the compound `CCCCC=C1NC(NCCSCc2csc(N=C(N)N)n2)=NC1=O` [Compound 94], the ED50 was determined as 0.06 mg/kg.

In the case of `NC(N)=Nc1nc(CSCCNC2=NC(=O)C(Cc3ccccc3)N2)cs1` (centres unmarked) [Compound 74], the ED50 worked out at 2.5 mg/kg.

Take `CCCCCC=C1NC(NCCSCc2csc(N=C(N)N)n2)=NC1=O` [Compound 89]: the ED50 was determined as 0.15 mg/kg.

Consider `NC(N)=Nc1nc(CSCCNC2=NC(=O)C(=Cc3ccccc3)N2)cs1` [Compound 80], for which the ED50 amounted to 0.5 mg/kg.

`NC(N)=Nc1nc(CSCCNC2=NC(=O)C(=Cc3ccc([N+](=O)[O-])cc3)N2)cs1` [Compound 82]: the ED50 was 0.6 mg/kg.

As for `NC(N)=Nc1nc(CSCCNC2=NC(=O)C(=CC=Cc3ccco3)N2)cs1` [Compound 86], the ED50 was 0.02 mg/kg.

For `CCCCCCC1NC(NCCSCc2csc(N=C(N)N)n2)=NC1=O` (centres unmarked) [Compound 72], the ED50 was 0.16 mg/kg.

On to `CCCC=C1NC(NCCSCc2csc(N=C(N)N)n2)=NC1=O` [Compound 88], for which the ED50 came to 0.1 mg/kg.

Regarding `CCC(C)C=C1NC(NCCSCc2csc(N=C(N)N)n2)=NC1=O` (centres unmarked) [Compound 93], the ED50 was 0.07 mg/kg.

On to `NC(N)=Nc1nc(CSCCNC2=NC(=O)C(=Cc3cccc(Oc4ccccc4)c3)N2)cs1` [Compound 96, 2[2-[(2-Guanidino-4-thiazolyl)]methylthio]ethylamino-5-(3-phenoxybenzylidenyl)-imidazolidin-4-one], for which the ED50 is 10 mg/kg.

For `NC(N)=Nc1nc(CSCCNC2=NC(=O)CN2)cs1` [Compound 64], the ED50 turned out to be 0.45 mg/kg.

With `CCC(C)C1NC(NCCSCc2csc(N=C(N)N)n2)=NC1=O` (centres unmarked) [Compound 70], the ED50 turned out to be 1.5 mg/kg.

`NC(N)=Nc1nc(CSCCNC2=NC(=O)C(c3ccccc3)(c3ccccc3)N2)cs1` [Compound 77]: the ED50 was 0.5 mg/kg.

In the case of `CC1NC(NCCSCc2csc(N=C(N)N)n2)=NC1=O` (centres unmarked) [Compound 65], the ED50 was determined as 0.7 mg/kg.

As to `CC1(C)NC(NCCSCc2csc(N=C(N)N)n2)=NC1=O` [Compound 78], the ED50 is 1 mg/kg.

With `CC(C)=C1NC(NCCSCc2csc(N=C(N)N)n2)=NC1=O` [Compound 91], the ED50 was 0.18 mg/kg.

On to `NC(N)=Nc1nc(CSCCNC2=NC(=O)C(=Cc3ccco3)N2)cs1` [Compound 85], for which the ED50 is 0.2 mg/kg.

With `CCCCC1NC(NCCSCc2csc(N=C(N)N)n2)=NC1=O` (centres unmarked) [Compound 69], the ED50 was found to be 0.15 mg/kg.

Consider `NC(N)=Nc1nc(CSCCNC2=NC(=O)C(=C3CCCCC3)N2)cs1` [Compound 90], for which the ED50 came to 0.18 mg/kg.

Consider `CC=C1NC(NCCSCc2csc(N=C(N)N)n2)=NC1=O` [Compound 87], for which the ED50 was 0.1 mg/kg.

As to `NC(N)=Nc1nc(CSCCNC2=NC(=O)C(=Cc3cccnc3)N2)cs1` [Compound 97], the ED50 came out at 0.5 mg/kg.

`CC(C)CC1NC(NCCSCc2csc(N=C(N)N)n2)=NC1=O` (centres unmarked) [Compound 71]: the ED50 is 0.2 mg/kg.

Regarding `NC(N)=Nc1nc(CSCCNC2=NC(=O)C(=Cc3ccc(C(F)(F)F)cc3)N2)cs1` [Compound 83], the ED50 turned out to be 3.5 mg/kg.
